According to US20220096511A1, “ANTIFUNGAL AGENTS WITH IMPROVED WATER SOLUBILITY” (priority 2019, published 2022):
Converted amounts (≈) assume the structure as drawn. Where two headings read alike, the source gives them in different places.

What was measured:
Aspergillus niger = assay: Minimum inhibitory concentration (MIC) testing, diffusion disc assay; format: cell-based; conditions: for MIC: Aspergillus niger, read-out: Inhibition of Aspergillus niger (MIC)
Experimental: (§1) Minimum inhibitory concentration (MIC) testing was determined for nystatin ethanol amide along with comparative antifungal agents.
(§2) Nystatin (Solid) and amphotericin were dissolved in DMF in 1 mg/mL. Econazole nitrate and Nystatin ethanol amide (salt) were dissolved in PBS to achieve 1 mg/mL.
(§3) Antibiotic medium 19 was sterilized in autoclave, after sterilization when the temperature lowered to 45° C. and 1 mL from spore suspension was added. 8 mL from this mixture dispensed to each petri dish.
(§4) On each dish 6 sterile diffusion paper disc were placed, 10 μL from each antibiotic were applied in 10, 15, 20, 25, 30, 35 μg/mL concentrations. Where MIC concentrations were below 10, lower concentrations were used: 2, 5, 7.5 μg/mL
(§5) The petri dishes were incubated overnight at 30° C. The MIC were determined as the lower concentration that inhibition could be visualized.
(§6) Observations. In this diffusion disc assay we measured the minimal concentration applied by each compound needed to inhibit the growth of C. albicans and A. niger. […] Amphotericin B inhibit the growth of C. albicans (16 μg/mL) similarly to Nystatin and Nystatin water soluble.

Candida albicans = assay: as above; format: cell-based; conditions: for Inhibition of Candida albicans (MIC): diffusion paper disc, overnight at 30° C., average of three experiments
Experimental: as §1, §2, §3, §4, §5, §6

Endotoxin testing (LAL) = conditions: standard methods
Experimental: Endotoxin testing (LAL) was performed using standard methods and found to be <30 Eu/mg.

hep2 cell line = assay: Toxicity: viability of hep2 cell line after incubation with the compound; format: cell-based; conditions: compared with nystatin
Experimental: Toxicity: Toxicity was tested with hep2 cell line by checking their viability after incubation with the compound. The amount of the compound that corresponds to 50% cell viability is the maximum amount of compound that can be apply on to cell culture.

microorganisms = assay: Potency testing, cylinder plate assay, method USP <81>; format: cell-based; conditions: for 1 mg
Description: The terms “antifungal activity” or “potency,” these terms being used interchangeably, refer to the inhibitory effect of an antifungal agent on microorganisms under suitable conditions as measured using a standard analytical method, such as the methods established by the United States Pharmacopeial Convention (USP).
Potency testing is done using a cylinder plate assay using the methods described in U.S. Pharmacopeia, e.g., Pharmacopeial Forum, Vol. 36(6) [November-December 2010] <81> Antibiotics—Microbial Assays, USP 32 page 86 ff.
FIG. 5 is a photo showing the results of potency testing according to method USP/81 of the nystatin ethanol amide product.

[1] = diffusion paper disc, overnight at 30° C., average of three experiments

Row | Molecule | Inhibition of Aspergillus niger (MIC) (Aspergillus niger; [1]) | Inhibition of Candida albicans (MIC) (Candida albicans) | also measured
1 | C[C@@H]1[C@H](O)[C@@H](C)/C=C/C=C/C=C/C=C/C=C/C=C/C=C/[C@H](O[C@@H]2O[C@H](C)[C@@H](O)[C@H](N)[C@@H]2O)C[C@@H]2O[C@](O)(C[C@@H](O)C[C@@H](O)[C@H](O)CC[C@@H](O)C[C@@H](O)CC(=O)O[C@H]1C)C[C@H](O)[C@H]2C(=O)O [Amphotericin, amphotericin B] |  |  | MIC (Aspergillus niger; [1]): 31.5 µg/mL (≈ 34.1 µM)
2 | Nystatin Methyl ester | No inhibition | 30 µg/mL | Inhibition of Aspergillus niger (MIC) (Aspergillus niger; diffusion paper disc, overnight at 30° C., average of three experiments, listed as Nystatin methyl ester): no observed inhibition
3 | Polymixin B | No inhibition | No inhibition | 
4 | C[C@@H]1[C@H](O)[C@@H](C)/C=C/C=C/CC/C=C/C=C/C=C/C=C/[C@H](O[C@@H]2O[C@H](C)[C@@H](O)[C@H](N)[C@@H]2O)C[C@@H]2O[C@](O)(C[C@@H](O)[C@H](O)CC[C@@H](O)C[C@@H](O)C[C@@H](O)CC(=O)O[C@H]1C)C[C@H](O)[C@H]2C(=O)NCCO [Nystatin ethanol amide] |  |  | Endotoxin (LAL) (Endotoxin testing (LAL)): < 30 Eu/mg; MIC (Aspergillus niger): 23.6 µg/mL (≈ 24.4 µM); MIC (Candida albicans; Candida albicans, read-out: Inhibition of Candida albicans (MIC)): 15.7 µg/mL (≈ 16.2 µM); Toxicity (amount of compound corresponding to 50% cell viability) (hep2 cell line): the same or better than the unsalable nystatin; potency (microorganisms): 5500-6500 U
5 | C[C@@H]1[C@H](O)[C@@H](C)/C=C/C=C/CC/C=C/C=C/C=C/C=C/C(O[C@H]2O[C@H](C)[C@@H](O)[C@H](N)[C@@H]2O)CC2O[C@](O)(CC(O)C(O)CCC(O)CC(O)CC(O)CC(=O)O[C@H]1C)CC(O)C2C(=O)O (stereo partly drawn) [Nystatin] | 22.5 µg/mL | 14 µg/mL | 
6 | Clc1ccc(COC(Cn2ccnc2)c2ccc(Cl)cc2Cl)cc1 (stereo not drawn) [Econazole, Econazole nitrate] | No inhibition | No inhibition | 
